According to the supplement of paper PMC10307832:

Assays:
Assay in all cases: relative viability (nuclei count vs DMSO), 5 days (fraction); higher = more cells survive
[1] = compound: Cc1ccccc1C(C(=O)NC1CCCCC1)N(C(=O)Cn1ccnc1C)c1cccc(F)c1 [IDH-C35] + O=C(CCCCCCC(=O)Nc1ccccc1)NO [Vorinostat] (partner 1 µM)
How it was run: (§1)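 Lung cancer cell lines in 1536-well plates got either a single drug or a fixed anchor-drug dose together with five library-drug doses (not always all listed) in √10 steps, by pin tool, on the day after seeding. Nuclei were counted after 5 days, and relative viability is the treated-to-vehicle ratio of nuclei counts. Values are medians of duplicate plates.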

[2] = compound: CC1=C(C(=NN1)C)CC2=C(C3=C(S2)N(C(=O)N(C3=O)C)CC(C)C)C(=O)N4C[C@@H](CO4)O + O=C(c1cc(Cc2n[nH]c(=O)c3ccccc23)ccc1F)N1CCN(C(=O)C2CC2)CC1 [Olaparib] (partner 8 µM)
How it was run: as §1

[3] = compound: CC1=C(C(=NN1)C)CC2=C(C3=C(S2)N(C(=O)N(C3=O)C)CC(C)C)C(=O)N4C[C@@H](CO4)O + Nc1nc2[nH]cc(CCc3ccc(C(=O)N[C@@H](CCC(=O)O)C(=O)O)cc3)c2c(=O)[nH]1 [Pemetrexed] (partner 0.2 µM)
How it was run: as §1

[4] = compound: Cc1ccccc1C(C(=O)NC1CCCCC1)N(C(=O)Cn1ccnc1C)c1cccc(F)c1 [IDH-C35] + CS(=O)(=O)N1CCN(Cc2cc3nc(-c4cccc5[nH]ncc45)nc(N4CCOCC4)c3s2)CC1 [Pictilisib] (partner 1 µM)
How it was run: as §1

Cell Line	relative viability ([1]; first compound 0.08 µM)	relative viability ([1]; first compound 0.253 µM)	relative viability ([1]; first compound 0.8 µM)	relative viability ([1]; first compound 2.53 µM)	relative viability ([1]; first compound 8 µM)	relative viability ([2]; first compound 0.0025 µM)	relative viability ([2]; first compound 0.007906 µM)	relative viability ([2]; first compound 0.025 µM)	relative viability ([2]; first compound 0.07906 µM)	relative viability ([2]; first compound 0.25 µM)	relative viability ([3]; first compound 0.0025 µM)	relative viability ([3]; first compound 0.007906 µM)	relative viability ([3]; first compound 0.025 µM)	relative viability ([3]; first compound 0.07906 µM)	relative viability ([3]; first compound 0.25 µM)	relative viability ([4]; first compound 0.08 µM)	relative viability ([4]; first compound 0.253 µM)	relative viability ([4]; first compound 0.8 µM)	relative viability ([4]; first compound 2.53 µM)	relative viability ([4]; first compound 8 µM)
NCI-H460	0.723	0.693	0.676	0.725	0.649	0.419	0.516	0.418	0.355	0.459	0.0637	0.0564	0.0621	0.0635	0.0733	0.43	0.438	0.325	0.326	0.297
NCI-H520	0.68	0.728	0.899	0.669	0.699	0.286	0.296	0.26	0.253	0.272	0.731	0.711	0.468	0.526	0.504	0.211	0.283	0.283	0.238	0.317
NCI-H596	0.733	0.584	0.721	0.725	0.604	0.765	0.743	0.73	0.696	0.635	0.481	0.544	0.484	0.481	0.488	0.434	0.442	0.435	0.537	0.384
NCI-H647	0.541	0.565	0.577	0.769	0.528	0.626	0.415	0.481	0.647	0.685	0.194	0.177	0.173	0.199	0.195	0.445	0.411	0.339		0.417
NCI-H650	0.413	0.434	0.515		0.505	0.415	0.45	0.345	0.41	0.454	0.983	0.989	0.775	0.949	0.957	0.926	0.863	0.847		0.851
NCI-H661	0.753	0.816	0.778	0.756	0.721	0.72	0.738	0.681	0.782	0.77	0.922	0.973	0.899	0.924	0.899	0.346	0.446	0.404	0.534	0.427
NCI-H838	0.706	0.675	0.718	0.763	0.72	0.741	0.714	0.639	0.65	0.604	0.261	0.229	0.236	0.243	0.224	0.414	0.506	0.453	0.508	0.423
